Measured values: PMC2477761, “D-glucose Stimulates the Na^+/K^+ Pump in Mouse Pancreatic Islet Cells” (International journal of experimental diabetes research, 2000)

System: T1, Na+/K+ ATPase (islet homogenate, ob/ob mice)
T1 construct: gene Atp1a1
Conditions: read-out: apparent K 0.5; 135 mM Na+, 20 mM K+, Mg2+, pH 7.4, 37 C, 10 min; deoxycholate-treated homogenate; 1 mM ouabain difference

- Km: 500 µM
Compound: Nc1ncnc2c1ncn2[C@@H]1O[C@H](COP(=O)(O)OP(=O)(O)OP(=O)(O)O)[C@@H](O)[C@H]1O [ATP]
